Assay results as given in patent US8969325B2, “TRPV1 antagonists” (AbbVie Inc., priority 2011, dated 2015).

Experiments:
human TRPV1 [1] = biological target: T1, human TRPV1 (Homo sapiens (Human), UniProt Q8NER1); assay: Acid Activation Assay (pH 5.0, intracellular Ca2+, FLIPR); format: cell-based; settings: percentage of the maximal pH 5.0-induced response remaining; recombinant HEK293 hTRPV1 cells; maximum concentration tested 37.5 μM
Summary of the method: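 Readout: peak [Ca2+]i fluorescence over baseline on FLIPR, expressed as percentage remaining of the maximal pH 5.0-evoked signal. Stable hTRPV1-HEK293 cells with Calcium-4 dye received compound (12 half-log concentrations, maximum 37.5 μM) 3 min before acidic pH 5.0 buffer.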

human TRPV1 [2] = biological target: T1, human TRPV1; assay: Capsaicin Activation Assay (intracellular Ca2+, FLIPR); format: cell-based; settings: recombinant HEK293 cells expressing hTRPV1, 50 nM capsaicin
Summary of the method: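 Ca2+ fluorescence was recorded by FLIPR every 1 to 5 seconds in HEK293 cells, clonally selected for stable human TRPV1 expression and plated one day ahead. Test compounds came as serial dilutions of 10 mM DMSO stocks.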

T1 sequence (Q8NER1 whole entry): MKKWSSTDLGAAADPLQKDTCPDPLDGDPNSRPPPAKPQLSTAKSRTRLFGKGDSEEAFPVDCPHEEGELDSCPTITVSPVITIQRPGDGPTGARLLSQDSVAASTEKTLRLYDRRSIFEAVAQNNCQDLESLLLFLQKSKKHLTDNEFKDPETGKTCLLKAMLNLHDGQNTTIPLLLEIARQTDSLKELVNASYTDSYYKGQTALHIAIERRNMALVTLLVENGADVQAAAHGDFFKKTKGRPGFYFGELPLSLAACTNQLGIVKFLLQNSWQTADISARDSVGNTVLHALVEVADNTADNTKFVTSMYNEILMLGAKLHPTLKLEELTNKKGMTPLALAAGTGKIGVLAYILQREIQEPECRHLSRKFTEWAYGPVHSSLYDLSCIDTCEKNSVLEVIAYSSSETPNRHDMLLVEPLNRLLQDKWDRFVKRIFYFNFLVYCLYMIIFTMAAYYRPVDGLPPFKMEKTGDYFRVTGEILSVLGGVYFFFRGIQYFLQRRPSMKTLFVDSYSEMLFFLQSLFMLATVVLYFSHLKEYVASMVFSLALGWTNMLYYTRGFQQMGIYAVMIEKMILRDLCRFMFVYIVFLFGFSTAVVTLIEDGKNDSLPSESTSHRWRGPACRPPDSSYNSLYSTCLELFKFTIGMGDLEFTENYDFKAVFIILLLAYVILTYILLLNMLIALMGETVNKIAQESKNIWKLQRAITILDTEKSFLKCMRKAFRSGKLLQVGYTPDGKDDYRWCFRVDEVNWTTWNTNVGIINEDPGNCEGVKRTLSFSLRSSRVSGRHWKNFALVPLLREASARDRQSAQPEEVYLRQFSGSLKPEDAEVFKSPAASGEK

Row | human TRPV1 H^+ (max % remain) (human TRPV1 [1]) [%] | IC50 (human TRPV1 [2]) [nM] | Structure (SMILES)
1 | 53 | 280 | CN1Cc2ccc(NC(=O)N[C@@H]3CC(CF)(CF)Oc4c3ccc(Cl)c4F)cc2NC1=O [Example 192, 1-[(4R)-7-chloro-8-fluoro-2,2-bis(fluoromethyl)-3,4-dihydro-2H-chromen-4-yl]-3-(3-methyl-2-oxo-1,2,3,4-tetrahydroquinazolin-7-yl)urea]
2 | 56 | 270 | CN1Cc2ccc(NC(=O)N[C@@H]3CC(C)(C)Oc4ccccc43)cc2NC1=O [Example 193, 1-[(4R)-2,2-dimethyl-3,4-dihydro-2H-chromen-4-yl]-3-(3-methyl-2-oxo-1,2,3,4-tetrahydroquinazolin-7-yl)urea]
3 | 52 | 1800 | CN1Cc2ccc(NC(=O)N[C@H]3CCOc4cc(OC(F)(F)F)ccc43)cc2NC1=O [Example 194, 1-(3-methyl-2-oxo-1,2,3,4-tetrahydroquinazolin-7-yl)-3-[(4S)-7-(trifluoromethoxy)-3,4-dihydro-2H-chromen-4-yl]urea]
4 | 49 | 280 | CN1Cc2ccc(NC(=O)N[C@@H]3CCOc4cc(OC(F)(F)F)ccc43)cc2NC1=O [Example 195, 1-(3-methyl-2-oxo-1,2,3,4-tetrahydroquinazolin-7-yl)-3-[(4R)-7-(trifluoromethoxy)-3,4-dihydro-2H-chromen-4-yl]urea]
5 | 53 | 2700 | COCC1(COC)C[C@@H](NC(=O)Nc2ccc3c(c2)NC(=O)N(C)C3)c2cc(F)ccc2O1 [Example 196, 1-[(4R)-6-fluoro-2,2-bis(methoxymethyl)-3,4-dihydro-2H-chromen-4-yl]-3-(3-methyl-2-oxo-1,2,3,4-tetrahydroquinazolin-7-yl)urea]
6 | 57 | 1100 | CN1Cc2ccc(NC(=O)N[C@@H]3CC(CF)(CF)Oc4ccccc43)cc2NC1=O [Example 197, 1-[(4R)-2,2-bis(fluoromethyl)-3,4-dihydro-2H-chromen-4-yl]-3-(3-methyl-2-oxo-1,2,3,4-tetrahydroquinazolin-7-yl)urea]
7 | 55 | 350 | CN1Cc2ccc(NC(=O)N[C@@H]3CC(CF)(CF)Oc4c(F)cccc43)cc2NC1=O [Example 198, 1-[(4R)-8-fluoro-2,2-bis(fluoromethyl)-3,4-dihydro-2H-chromen-4-yl]-3-(3-methyl-2-oxo-1,2,3,4-tetrahydroquinazolin-7-yl)urea]
8 | 58 | 6700 | CN1Cc2ccc(NC(=O)N[C@@H]3CCOc4ccc(F)cc43)cc2NC1=O [Example 199, 1-[(4R)-6-fluoro-3,4-dihydro-2H-chromen-4-yl]-3-(3-methyl-2-oxo-1,2,3,4-tetrahydroquinazolin-7-yl)urea]
9 | 21 | 90 | CN1Cc2ccc(NC(=O)N[C@@H]3CCOc4c3cccc4C(F)(F)F)cc2NC1=O [Example 200, 1-(3-methyl-2-oxo-1,2,3,4-tetrahydroquinazolin-7-yl)-3-[(4R)-8-(trifluoromethyl)-3,4-dihydro-2H-chromen-4-yl]urea]
10 | 45 | 130 | CN1Cc2ccc(NC(=O)N[C@@H]3CCOc4cc(C(F)(F)F)ccc43)cc2NC1=O [Example 201, 1-(3-methyl-2-oxo-1,2,3,4-tetrahydroquinazolin-7-yl)-3-[(4R)-7-(trifluoromethyl)-3,4-dihydro-2H-chromen-4-yl]urea]
11 | 50 | 220 | CN1Cc2ccc(NC(=O)N[C@@H]3CCc4cc(F)ccc43)cc2NC1=O [Example 202, 1-[(1R)-5-fluoro-2,3-dihydro-1H-inden-1-yl]-3-(3-methyl-2-oxo-1,2,3,4-tetrahydroquinazolin-7-yl)urea]
12 | 64 | 28000 | CN1Cc2ccc(NC(=O)N[C@H]3CC4(CCC4)Oc4ccc(F)cc43)cc2NC1=O [Example 203, 1-[(4S)-6-fluoro-3,4-dihydrospiro[chromene-2,1′-cyclobutan]-4-yl]-3-(3-methyl-2-oxo-1,2,3,4-tetrahydroquinazolin-7-yl)urea]
13 | 55 | 1600 | CN1Cc2ccc(NC(=O)N[C@H]3CC(C)(C)Oc4ccc(F)cc43)cc2NC1=O [Example 204, 1-[(4S)-6-fluoro-2,2-dimethyl-3,4-dihydro-2H-chromen-4-yl]-3-(3-methyl-2-oxo-1,2,3,4-tetrahydroquinazolin-7-yl)urea]
14 | 56 | 400 | CN1Cc2ccc(NC(=O)N[C@@H]3CC4(CCCC4)Oc4ccccc43)cc2NC1=O [Example 205, 1-[(4R)-3,4-dihydrospiro[chromene-2,1′-cyclopentan]-4-yl]-3-(3-methyl-2-oxo-1,2,3,4-tetrahydroquinazolin-7-yl)urea]
15 | 43 | 240 | CN1Cc2ccc(NC(=O)N[C@@H]3C[C@](C)(CF)Oc4cc(C(F)(F)F)ccc43)cc2NC1=O [Example 206, 1-[(2R,4R)-2-(fluoromethyl)-2-methyl-7-(trifluoromethyl)-3,4-dihydro-2H-chromen-4-yl]-3-(3-methyl-2-oxo-1,2,3,4-tetrahydroquinazolin-7-yl)urea]
16 | 57 | 330 | CN1Cc2ccc(NC(=O)N[C@@H]3C[C@](C)(C(F)F)Oc4ccccc43)cc2NC1=O [Example 207, 1-[(2R,4R)-2-(difluoromethyl)-2-methyl-3,4-dihydro-2H-chromen-4-yl]-3-(3-methyl-2-oxo-1,2,3,4-tetrahydroquinazolin-7-yl)urea]
17 | 55 | 1300 | CN1Cc2ccc(NC(=O)N[C@@H]3CC(C)(C)Oc4nc(C(F)(F)F)ccc43)cc2NC1=O [Example 208, 1-[(4R)-2,2-dimethyl-7-(trifluoromethyl)-3,4-dihydro-2H-pyrano[2,3-b]pyridin-4-yl]-3-(3-methyl-2-oxo-1,2,3,4-tetrahydroquinazolin-7-yl)urea]
18 | 57 | 290 | CN1Cc2ccc(NC(=O)N[C@@H]3CC(CF)(CF)Oc4cc(F)ccc43)cc2NC1=O [Example 209, 1-[(4R)-7-fluoro-2,2-bis(fluoromethyl)-3,4-dihydro-2H-chromen-4-yl]-3-(3-methyl-2-oxo-1,2,3,4-tetrahydroquinazolin-7-yl)urea]
19 | 55 | 20 | O=C1CCc2ccc(NC(=O)N[C@@H]3CC(CF)(CF)Oc4cc(OC(F)(F)F)ccc43)cc2N1 [Example 211, 1-[(4R)-2,2-bis(fluoromethyl)-7-(trifluoromethoxy)-3,4-dihydro-2H-chromen-4-yl]-3-(2-oxo-1,2,3,4-tetrahydroquinolin-7-yl)urea]
20 | 34 | 61 | C[C@@]1(C(F)F)C[C@@H](NC(=O)Nc2ccc3c(c2)NC(=O)CC3)c2ccc(Cl)cc2O1 [Example 212, 1-[(2S,4R)-7-chloro-2-(difluoromethyl)-2-methyl-3,4-dihydro-2H-chromen-4-yl]-3-(2-oxo-1,2,3,4-tetrahydroquinolin-7-yl)urea]
21 | 42 | 170 | O=C1CCc2ccc(NC(=O)N[C@@H]3CC(CF)(CF)Oc4ccc(F)cc43)cc2N1 [Example 213, 1-[(4R)-6-fluoro-2,2-bis(fluoromethyl)-3,4-dihydro-2H-chromen-4-yl]-3-(2-oxo-1,2,3,4-tetrahydroquinolin-7-yl)urea]
